Where two headings read alike, the source gives them in different places.
How the values were obtained:
PI3K δ = PI3K δ (Homo sapiens, UniProt O00329); assay: PI 3-Kinase (human) HTRF assay, PI3K δ; conditions: read-out: PI3K δ IC50
PI3K γ = PI3K γ (Homo sapiens, UniProt P48736); assay: PI 3-Kinase (human) HTRF assay, PI3K γ; conditions: read-out: PI3K γ IC50; Table 4
Experimental: (§1) An exemplary system is PI 3-Kinase (human) HTRF™ Assay from Upstate. […] Briefly, the assay is a time resolved FRET assay that indirectly measures PIP3 product formed by the activity of a PI3-K. The kinase reaction is performed in a microtitre plate (e.g., a 384 well microtitre plate). The total reaction volume is approximately 20 ul per well. In the first step, each well receives 2 ul of test compound in 20% dimethylsulphoxide resulting in a 2% DMSO final concentration. […] The plate is sealed and incubated for 15 minutes at room temperature. […] The plate is sealed and incubated for 1 hour at room temperature. The reaction is stopped by adding 5 ul of Stop Solution per well and then 5 ul of Detection Mix is added per well. The plate is sealed, incubated for 1 hour at room temperature, and then read on an appropriate plate reader. Data is analyzed and IC50s are generated using GraphPad Prism 5.

PI3K β = PI3K β (Homo sapiens, UniProt P42338); assay: PI 3-Kinase (human) HTRF assay, PI3K β; conditions: read-out: PI3K β IC50; Table 4
Experimental: as §1

PI3K α = PI3K α (Homo sapiens, UniProt P42336); assay: PI 3-Kinase (human) HTRF assay, PI3K α; conditions: read-out: PI3K α IC50; Table 4
Sequence of PI3K α (P42336 whole entry): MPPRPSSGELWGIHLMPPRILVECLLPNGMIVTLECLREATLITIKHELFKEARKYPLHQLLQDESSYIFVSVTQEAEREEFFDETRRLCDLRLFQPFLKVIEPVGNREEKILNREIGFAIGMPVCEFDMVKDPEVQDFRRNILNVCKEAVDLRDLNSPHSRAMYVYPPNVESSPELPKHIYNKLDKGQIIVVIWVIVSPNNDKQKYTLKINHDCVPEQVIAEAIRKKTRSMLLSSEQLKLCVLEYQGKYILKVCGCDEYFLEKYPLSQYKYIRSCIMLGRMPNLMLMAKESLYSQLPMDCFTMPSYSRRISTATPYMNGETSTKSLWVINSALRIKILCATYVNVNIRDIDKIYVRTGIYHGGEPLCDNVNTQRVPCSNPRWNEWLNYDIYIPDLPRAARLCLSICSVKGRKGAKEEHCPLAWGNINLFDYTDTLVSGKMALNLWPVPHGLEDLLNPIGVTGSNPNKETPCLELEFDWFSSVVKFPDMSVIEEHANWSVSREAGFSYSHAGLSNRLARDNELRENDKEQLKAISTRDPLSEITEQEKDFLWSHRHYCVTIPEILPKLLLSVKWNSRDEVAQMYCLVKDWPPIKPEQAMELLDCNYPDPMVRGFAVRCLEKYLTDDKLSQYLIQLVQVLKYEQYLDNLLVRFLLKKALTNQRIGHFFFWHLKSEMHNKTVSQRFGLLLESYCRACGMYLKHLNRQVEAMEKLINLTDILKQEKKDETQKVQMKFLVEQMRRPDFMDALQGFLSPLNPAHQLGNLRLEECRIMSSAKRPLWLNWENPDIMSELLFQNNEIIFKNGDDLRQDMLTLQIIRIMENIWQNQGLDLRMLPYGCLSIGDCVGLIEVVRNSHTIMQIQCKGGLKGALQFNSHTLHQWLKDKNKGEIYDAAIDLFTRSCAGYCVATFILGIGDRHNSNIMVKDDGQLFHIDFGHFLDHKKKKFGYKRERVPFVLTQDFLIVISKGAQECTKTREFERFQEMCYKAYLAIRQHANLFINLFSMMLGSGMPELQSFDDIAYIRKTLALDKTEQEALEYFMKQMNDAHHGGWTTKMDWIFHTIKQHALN
Sequence of PI3K α (P27986 whole entry partner): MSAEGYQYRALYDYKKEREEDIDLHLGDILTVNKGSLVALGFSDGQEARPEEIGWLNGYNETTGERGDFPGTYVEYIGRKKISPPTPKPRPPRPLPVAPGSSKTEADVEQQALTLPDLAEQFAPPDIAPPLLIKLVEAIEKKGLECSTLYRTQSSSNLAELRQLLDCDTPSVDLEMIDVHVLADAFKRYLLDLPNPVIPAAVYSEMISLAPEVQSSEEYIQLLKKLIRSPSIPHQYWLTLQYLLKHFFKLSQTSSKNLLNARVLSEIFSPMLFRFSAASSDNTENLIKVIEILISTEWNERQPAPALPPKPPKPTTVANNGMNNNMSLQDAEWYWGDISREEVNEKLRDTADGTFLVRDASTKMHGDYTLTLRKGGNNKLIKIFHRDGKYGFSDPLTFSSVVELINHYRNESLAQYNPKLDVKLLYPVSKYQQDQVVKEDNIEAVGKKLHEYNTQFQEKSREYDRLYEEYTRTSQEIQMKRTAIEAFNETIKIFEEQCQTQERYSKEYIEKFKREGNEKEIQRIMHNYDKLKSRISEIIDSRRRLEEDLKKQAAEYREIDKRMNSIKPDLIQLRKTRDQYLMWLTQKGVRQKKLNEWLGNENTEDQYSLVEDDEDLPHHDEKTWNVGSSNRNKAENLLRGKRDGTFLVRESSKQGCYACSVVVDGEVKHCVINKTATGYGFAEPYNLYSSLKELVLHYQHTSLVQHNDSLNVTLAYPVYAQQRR
Experimental: as §1

Sequence of PI3K γ (P48736 whole entry): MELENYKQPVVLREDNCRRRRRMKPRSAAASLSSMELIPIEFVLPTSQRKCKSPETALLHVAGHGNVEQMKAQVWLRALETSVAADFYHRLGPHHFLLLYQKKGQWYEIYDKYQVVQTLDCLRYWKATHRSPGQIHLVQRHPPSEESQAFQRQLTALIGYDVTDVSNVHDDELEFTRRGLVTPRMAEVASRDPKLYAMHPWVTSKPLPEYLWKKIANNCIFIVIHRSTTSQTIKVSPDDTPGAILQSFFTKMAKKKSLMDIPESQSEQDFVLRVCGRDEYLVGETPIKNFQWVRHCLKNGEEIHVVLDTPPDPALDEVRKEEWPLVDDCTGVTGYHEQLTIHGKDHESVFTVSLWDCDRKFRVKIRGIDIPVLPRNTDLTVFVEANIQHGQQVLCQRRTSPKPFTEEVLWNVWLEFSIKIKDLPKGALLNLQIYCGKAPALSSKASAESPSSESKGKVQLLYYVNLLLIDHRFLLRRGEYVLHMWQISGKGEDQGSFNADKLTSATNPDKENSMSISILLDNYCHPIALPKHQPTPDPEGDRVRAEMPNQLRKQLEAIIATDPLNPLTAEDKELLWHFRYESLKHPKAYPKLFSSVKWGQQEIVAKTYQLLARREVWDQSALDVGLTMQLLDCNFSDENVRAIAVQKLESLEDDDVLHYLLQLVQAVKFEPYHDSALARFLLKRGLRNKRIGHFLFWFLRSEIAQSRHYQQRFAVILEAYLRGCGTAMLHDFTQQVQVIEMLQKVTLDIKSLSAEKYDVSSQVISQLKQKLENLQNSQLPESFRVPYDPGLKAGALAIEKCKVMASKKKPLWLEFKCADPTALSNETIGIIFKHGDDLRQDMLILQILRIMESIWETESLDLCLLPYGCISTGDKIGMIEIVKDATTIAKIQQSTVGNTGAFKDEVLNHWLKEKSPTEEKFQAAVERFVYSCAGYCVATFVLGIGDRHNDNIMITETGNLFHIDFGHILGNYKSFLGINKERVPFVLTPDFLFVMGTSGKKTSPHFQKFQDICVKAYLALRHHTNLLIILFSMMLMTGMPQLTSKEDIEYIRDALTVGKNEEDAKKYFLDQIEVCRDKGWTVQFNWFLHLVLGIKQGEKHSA
Sequence of PI3K β (P42338 whole entry): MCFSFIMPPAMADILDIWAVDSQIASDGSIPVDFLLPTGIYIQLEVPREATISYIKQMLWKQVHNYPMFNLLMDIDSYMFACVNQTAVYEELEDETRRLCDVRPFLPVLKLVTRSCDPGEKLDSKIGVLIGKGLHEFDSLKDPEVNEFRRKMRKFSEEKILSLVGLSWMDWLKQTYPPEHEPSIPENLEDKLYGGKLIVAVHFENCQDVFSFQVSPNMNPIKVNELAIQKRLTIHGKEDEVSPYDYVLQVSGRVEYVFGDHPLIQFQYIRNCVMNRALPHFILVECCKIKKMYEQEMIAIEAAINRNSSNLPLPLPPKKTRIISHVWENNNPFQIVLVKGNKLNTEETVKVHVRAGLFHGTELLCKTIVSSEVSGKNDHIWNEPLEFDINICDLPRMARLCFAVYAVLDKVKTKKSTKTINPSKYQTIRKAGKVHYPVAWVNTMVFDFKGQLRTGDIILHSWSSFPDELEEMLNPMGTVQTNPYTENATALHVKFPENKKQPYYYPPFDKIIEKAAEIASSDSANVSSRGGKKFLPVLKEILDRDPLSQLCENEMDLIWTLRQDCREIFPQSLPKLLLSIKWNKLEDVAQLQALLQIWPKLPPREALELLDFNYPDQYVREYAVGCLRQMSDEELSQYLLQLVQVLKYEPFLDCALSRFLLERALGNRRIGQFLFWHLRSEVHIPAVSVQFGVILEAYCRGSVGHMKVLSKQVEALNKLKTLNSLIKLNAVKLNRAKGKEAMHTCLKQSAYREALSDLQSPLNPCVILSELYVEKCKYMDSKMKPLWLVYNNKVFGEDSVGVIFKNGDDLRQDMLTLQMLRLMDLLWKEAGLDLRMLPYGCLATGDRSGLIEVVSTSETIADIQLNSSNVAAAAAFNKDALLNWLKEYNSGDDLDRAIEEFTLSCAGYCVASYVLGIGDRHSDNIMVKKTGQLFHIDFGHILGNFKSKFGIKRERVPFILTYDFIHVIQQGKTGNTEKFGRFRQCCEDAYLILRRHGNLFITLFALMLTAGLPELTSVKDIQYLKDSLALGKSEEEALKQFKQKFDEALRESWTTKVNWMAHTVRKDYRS
Sequence of PI3K β (P27986 whole entry partner): as the sequence (P27986 whole entry partner) above
Sequence of PI3K δ (O00329 whole entry): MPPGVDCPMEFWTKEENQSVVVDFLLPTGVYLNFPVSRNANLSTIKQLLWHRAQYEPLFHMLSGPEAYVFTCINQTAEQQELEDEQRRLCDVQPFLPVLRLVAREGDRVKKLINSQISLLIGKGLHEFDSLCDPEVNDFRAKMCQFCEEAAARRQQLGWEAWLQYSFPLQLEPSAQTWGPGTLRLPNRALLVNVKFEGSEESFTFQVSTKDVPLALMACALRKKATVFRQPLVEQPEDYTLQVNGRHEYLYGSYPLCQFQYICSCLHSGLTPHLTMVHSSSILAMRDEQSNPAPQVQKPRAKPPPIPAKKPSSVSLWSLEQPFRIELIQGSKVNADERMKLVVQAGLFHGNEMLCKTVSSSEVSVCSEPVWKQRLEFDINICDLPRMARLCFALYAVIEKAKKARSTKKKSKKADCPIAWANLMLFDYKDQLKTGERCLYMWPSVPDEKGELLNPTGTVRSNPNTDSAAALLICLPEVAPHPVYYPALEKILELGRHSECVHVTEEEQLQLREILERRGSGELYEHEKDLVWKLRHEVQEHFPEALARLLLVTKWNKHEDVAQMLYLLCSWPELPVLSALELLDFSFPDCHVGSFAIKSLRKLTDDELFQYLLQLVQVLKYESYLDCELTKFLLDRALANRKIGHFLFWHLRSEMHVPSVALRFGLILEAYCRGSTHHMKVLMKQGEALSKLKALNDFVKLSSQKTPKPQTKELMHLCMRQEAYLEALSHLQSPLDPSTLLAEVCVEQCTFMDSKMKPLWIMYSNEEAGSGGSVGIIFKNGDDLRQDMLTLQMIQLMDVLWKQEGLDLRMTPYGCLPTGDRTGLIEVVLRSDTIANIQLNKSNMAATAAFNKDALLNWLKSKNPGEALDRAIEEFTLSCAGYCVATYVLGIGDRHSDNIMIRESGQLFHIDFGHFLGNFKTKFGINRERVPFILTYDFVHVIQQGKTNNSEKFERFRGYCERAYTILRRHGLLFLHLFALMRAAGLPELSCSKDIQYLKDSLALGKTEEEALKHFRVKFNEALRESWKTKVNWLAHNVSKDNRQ
Sequence of PI3K δ (P27986 whole entry partner): as the sequence (P27986 whole entry partner) above

Row | SMILES | IC50 (PI3K δ; Table 4) | IC50 (PI3K γ) | IC50 (PI3K β) | other results
1 | CN1CCN(c2cnc3ccc(-c4ccc5oc(N)nc5c4)nc3c2)CC1 [Compound 575] | < 10 µM | – | – | –
2 | C[C@@H]1CN(C2CN(c3cnc4ccc(-c5ccc6oc(N)nc6c5)nc4n3)C2)CCN1C [Compound 576] | < 10 µM | < 10 µM | – | –
3 | CCN(CC)c1cnc2ccc(-c3ccc4oc(N)nc4c3)nc2n1 [Compound 577] | < 10 µM | – | – | –
4 | C[C@@H]1CN(c2cnc3ccc(-c4ccc5oc(N)nc5c4)nc3n2)CCN1 [Compound 578] | < 10 µM | – | – | –
5 | C[C@@H](N)C(=O)N1CCN(c2cnc3ccc(-c4ccc5oc(N)nc5c4)nc3n2)CC1 [Compound 582] | – | – | < 10 µM | IC50 (PI3K δ): < 10 µM
6 | CC(C)N1CCN(c2cnc3ccc(-c4ccc5oc(N)nc5c4)nc3n2)CC1 [Compound 583] | < 10 µM | – | – | –
7 | NCC(=O)N1CCN(c2cnc3ccc(-c4ccc5oc(N)nc5c4)nc3n2)CC1 [Compound 584] | < 10 µM | – | < 10 µM | –
8 | Nc1nc2cc(-c3ccc4ncc(N5CC(N6CCN(CC7CC7)CC6)C5)nc4n3)ccc2o1 [Compound 586] | < 10 µM | < 10 µM | < 10 µM | –
9 | CCOC(=O)N1CCN(c2cnc3ccc(-c4ccc5oc(N)nc5c4)nc3c2)CC1 [Compound 587] | – | – | < 10 µM | –
10 | CC(C)(N)C(=O)N1CCN(c2cnc3ccc(-c4ccc5oc(N)nc5c4)nc3n2)CC1 [Compound 591] | – | < 10 µM | < 10 µM | IC50 (PI3K δ): < 10 µM
11 | Nc1nc2cc(-c3ccc4ncc(N5CCC(O)CC5)nc4n3)ccc2o1 [Compound 596] | – | – | < 10 µM | –
12 | Nc1nc2cc(-c3ccc4ncc(N5CC(N6CCN(CCO)CC6)C5)nc4n3)ccc2o1 [Compound 597] | < 10 µM | < 10 µM | < 10 µM | –
13 | C[C@H]1CN(c2cnc3ccc(-c4ccc5oc(N)nc5c4)nc3c2)CCN1 [Compound 598] | – | – | – | IC50 (PI3K δ): < 10 µM
14 | Cc1nccn1C1CN(c2cnc3ccc(-c4ccc5oc(N)nc5c4)nc3n2)C1 [Compound 601] | < 10 µM | < 10 µM | < 10 µM | –
15 | CC1(C)CN(C2CN(c3cnc4ccc(-c5ccc6oc(N)nc6c5)nc4n3)C2)CCN1 [Compound 603] | – | – | < 10 µM | –
16 | Nc1nc2cc(-c3ccc4ncc(N5CC(N6CCOCC6)C5)cc4n3)ccc2o1 [Compound 604] | – | – | < 10 µM | IC50 (PI3K δ): < 10 µM
17 | C[C@H]1CN(C2CN(c3cnc4ccc(-c5ccc6oc(N)nc6c5)nc4c3)C2)CCN1 [Compound 605] | – | < 10 µM | < 10 µM | –

Row | SMILES | IC50 (PI3K δ; Table 4) | IC50 (PI3K γ) | IC50 (PI3K β) | other results
18 | CC1(C)CN(C2CN(c3cnc4ccc(-c5ccc6oc(N)nc6c5)nc4c3)C2)CCN1 [Compound 609] | – | – | < 10 µM | –
19 | Nc1nc2cc(-c3ccc4ncc(N5CC(N6CCN(CC7CC7)CC6)C5)cc4n3)ccc2o1 [Compound 611] | – | < 10 µM | < 10 µM | –
20 | C[C@H]1COCCN1C1CN(c2cnc3ccc(-c4ccc5oc(N)nc5c4)nc3n2)C1 [Compound 612] | < 10 µM | < 10 µM | – | –
21 | Nc1nc2cc(-c3ccc4ncc(N5CCC(O)CC5)cc4n3)ccc2o1 [Compound 613] | < 10 µM | – | < 10 µM | –
22 | Cc1nccn1C1CN(c2cnc3ccc(-c4ccc5oc(N)nc5c4)nc3c2)C1 [Compound 614] | – | – | < 10 µM | –
23 | CN1CCN(C2CN(c3cnc4ccc(-c5ccc6oc(N)nc6c5)nc4c3)C2)CC1=O [Compound 615] | – | – | < 10 µM | –
24 | Nc1nc2cc(-c3ccc4ncc(N5CC(N6CCN(CCO)CC6)C5)cc4n3)ccc2o1 [Compound 616] | – | – | < 10 µM | –
25 | C[C@@H]1COCCN1C1CN(c2cnc3ccc(-c4ccc5oc(N)nc5c4)nc3c2)C1 [Compound 617] | – | – | < 10 µM | –
26 | C[C@H]1COCCN1C1CN(c2cnc3ccc(-c4ccc5oc(N)nc5c4)nc3c2)C1 [Compound 619] | – | < 10 µM | – | –
27 | Nc1nc2cc(-c3ccc4ncc(N5CC(N6CCN(C7CC7)CC6)C5)nc4n3)ccc2o1 [Compound 620] | – | < 10 µM | < 10 µM | IC50 (PI3K δ): < 10 µM
28 | Nc1nc2cc(-c3ccc4ncc(N5CC(N6CCN(C7CC7)CC6)C5)cc4n3)ccc2o1 [Compound 621] | < 10 µM | – | < 10 µM | –
29 | CN1CCN(C2CN(c3cnc4ccc(-c5ccc6oc(N)nc6c5)nc4n3)C2)CC1 [Compound 622] | – | – | < 10 µM | –
30 | CCN1CCN(C2CN(c3cnc4ccc(-c5ccc6oc(N)nc6c5)nc4c3)C2)CC1 [Compound 626] | – | < 10 µM | – | –
31 | CCN1CCN(C2CN(c3cnc4ccc(-c5ccc6oc(N)nc6c5)nc4n3)C2)CC1 [Compound 627] | < 10 µM | < 10 µM | < 10 µM | –
32 | CC(C)N1CCN(C2CN(c3cnc4ccc(-c5ccc6oc(N)nc6c5)nc4n3)C2)CC1 [Compound 628] | – | – | – | IC50 (PI3K α): < 10 µM
33 | CN1CCN(c2ccc3ncc(-c4ccc5oc(N)nc5c4)cc3n2)CC1 [Compound 631] | – | – | < 10 µM | IC50 (PI3K α): < 10 µM
34 | CC(C)(N)C(=O)N1CCN(c2ccc3ncc(-c4ccc5oc(N)nc5c4)cc3n2)CC1 [Compound 633] | – | – | – | IC50 (PI3K α): < 10 µM

— patent US9295673B2, “Combination of mTOR inhibitors and P13-kinase inhibitors, and uses thereof” (Intellikine LLC, priority 2011, dated 2016)
